In patent US20030018061A1, “Novel remedies with the use of beta 3 agonist” (priority 2000, published 2003):

How the values were obtained:
[1] = tested on: salivation induced with pilocarpine; assay: Mouth dryness: suppression of salivation induced with pilocarpine (method of Nagao et al.); format: in vivo
Text: Examples of a selectable index of toxicity include mouth dryness, which is cited as a side effect of anticholinergic agents. Such mouth dryness can be measured by evaluating suppression of salivation induced with pilocarpine in accordance with the method of Nagao et al. (Folia Pharmacologica Japonica, Vol. 113, p156-166 (1999)). Further, elevation of blood pressure that is cited as a side effect of sibutramine can also be employed as an index of toxicity. Such elevation of blood pressure can be determined through use of a pressure transducer. Gastrointestinal dysfunction (fatty stool, defecation increase, abdominal pain, impending defecation desire) that is cited as a side effect of orlistat can also be employed as an index of toxicity. Such gastrointestinal dysfunction can be examined by analyzing the stool amount and the stool composition. Promotion of appetite that is cited as a side effect of insulin secretagogue can also be employed as an index of toxicity. Such promotion of appetite can be determined by observing body weight fluctuations using an animal, and hypoglycemia can be determined by investigating the concentration of glucose in blood. Loose passage that is cited as a side effect of α-glucosidase inhibitor can also be employed as an index of toxicity. Such loose passage and diarrhea can be investigated by, in the case of administration to animal, external observation of stool, or by analysis of stool amount and stool composition. Body weight gain that is cited as a side effect of insulin resistance improving agent can also be employed as an index of toxicity. Such body weight gain can be investigated by measurement of body weight after administration to animal. Gastrointestinal dysfunction that is cited as a side effect of HMG-CoA reductase inhibitor can also be employed as an index of toxicity. Such gastrointestinal dysfunction can be investigated by analysis of stool amount and stool composition. Gastrointestinal dysfunction that is cited as a side effect of clofibrate type drugs can also be employed as an index of toxicity. […]

[2] = tested on: human urinary bladder compression muscle; assay: Relaxation of carbachol-contracted human urinary bladder compression muscle; format: cell-based; settings: for concentration at which the bladder compression muscle was significantly relaxed / concentration at which the muscle was not relaxed significantly: contraction provoked by carbachol (0.5×10^−6 M), each compound alone; for relaxation of bladder compression muscle, combination with propiverine: 10^−6 M propiverine plus compound (a, b, f, g 10^−9 M; c, d 10^−10 M; e, h, i 10^−8 M); for relaxation of bladder compression muscle, combination with propiverine / relaxation of bladder compression muscle, combination with oxybutynin / relaxation of bladder compression muscle, combination with tolterodine: in comparison with each compound alone; for relaxation of bladder compression muscle, combination with oxybutynin: 10^−9 M oxybutynin plus compound (a, b, f, g 10^−9 M; c 10^−10 M; e, h, i 10^−8 M); for relaxation of bladder compression muscle, combination with tolterodine: 10^−9 M tolterodine plus compound (a, b, f, g 10^−9 M; d 10^−10 M; e, h, i 10^−8 M)
[3] = tested on: Mice induced with obesity by feeding with a high fat diet; assay: Antiobestic effect (I): body weight of high fat diet obese mice, sibutramine and β3 agonist; format: in vivo; settings: oral, 2 weeks; SIB 1 mg/kg; compound c, d 0.3 mg/kg; e, g 3 mg/kg; h, i 1 mg/kg; alone or combined at same doses
Procedure: (§1) Mice induced with obesity by feeding with a high fat diet for 2 months were orally administered with sibutramine (SIB: 1 mg/kg), a β3 agonist (compound c: 0.3 mg/kg; compound d: 0.3 mg/kg; compound e: 3 mg/kg; compound g: 3 mg/kg; compound h: 1 mg/kg; compound i: 1 mg/kg), or SIB and a β3 agonist (compound c, compound d, compound e, compound g, compound h, and compound i) in combination (each dosage was the same as the aforementioned) for 2 weeks and bred, and body weight was measured.

Mice [4] = assay: Antilipemic effect (II): plasma triglyceride in mice, bezafibrate and β3 agonist; format: in vivo; settings: oral, 2 weeks; administered solely: BEZ 3 mg/kg; compound c, d 0.3 mg/kg; e, g 3 mg/kg; h, i 1 mg/kg
Procedure: Mice were orally administered with bezafibrate (BEZ: 3 mg/kg), a β3 agonist (compound c: 0.3 mg/kg; compound d: 0.3 mg/kg; compound e: 3 mg/kg; compound g: 3 mg/kg; compound h: 1 mg/kg; compound i: 1 mg/kg), or BEZ and a β3 agonist (compound c, compound d, compound e, compound g, compound h, and compound i) in combination (each dosage was the same as the aforementioned) for 2 weeks. Blood was collected thereafter, and the amount of triglyceride contained in blood plasma was measured.

[5] = tested on: Mice induced with obesity by feeding with a high fat diet; assay: Antiobestic effect (II): body weight of high fat diet obese mice, orlistat and β3 agonist; format: in vivo; settings: oral, 2 weeks; orlistat 1 mg/kg; compound c, d 0.3 mg/kg; e, g 3 mg/kg; h, i 1 mg/kg; alone or combined at same doses
Procedure: as §1, with “orlistat (1” for “sibutramine (SIB: 1”, “orlistat” for “SIB”

[6] = tested on: Genetically diabetic mice; assay: Antidiabetic effect (III): genetically diabetic mice, rosiglitazone and β3 agonist; format: in vivo; settings: oral, 2 weeks; ROS 1 mg/kg; compound c, d 0.3 mg/kg; e, g 3 mg/kg; h, i 1 mg/kg; alone or combined
Procedure: Genetically diabetic mice were orally administered with rosiglitazone (ROS: 1 mg/kg), a β3 agonist (compound c: 0.3 mg/kg; compound d: 0.3 mg/kg; compound e: 3 mg/kg; compound g: 3 mg/kg; compound h: 1 mg/kg; compound i: 1 mg/kg), or ROS and a β3 agonist (compound c, compound d, compound e, compound g, compound h, and compound i) in combination (each dosage was the same as the aforementioned) for 2 weeks. Blood was collected thereafter, and the amount of glucose contained in blood plasma was measured.

[7] = tested on: Genetically diabetic mice; assay: Antidiabetic effect (IV): genetically diabetic mice, acarbose and β3 agonist; format: in vivo; settings: oral, 2 weeks; ACA 1 mg/kg; compound c, d 0.3 mg/kg; e, g 3 mg/kg; h, i 1 mg/kg; alone or combined
Procedure: Genetically diabetic mice were orally administered with acarbose (ACA: 1 mg/kg), a β3 agonist (compound c: 0.3 mg/kg; compound d: 0.3 mg/kg; compound e: 3 mg/kg; compound g: 3 mg/kg; compound h: 1 mg/kg; compound i: 1 mg/kg), or ACA and a β3 agonist (compound c, compound d, compound e, compound g, compound h, and compound i) in combination (each dosage was the same as the aforementioned) for 2 weeks. Blood was collected thereafter, and the amount of glucose contained in blood plasma was measured.

Mice [8] = assay: Antidiabetic effect: plasma glucose in mice, insulin and β3 agonist; format: in vivo; settings: 30 min after dosing; INS 0.2 U/kg intraperitoneal; oral compound a 10 mg/kg; c, d 0.3 mg/kg; e, g 3 mg/kg; h, i 1 mg/kg; alone or combined
Procedure: Mice were administered with insulin (INS: 0.2 U/kg, intraperitoneal injection), a β3 agonist (oral administration of compound a: 10 mg/kg; compound c: 0.3 mg/kg; compound d: 0.3 mg/kg; compound e: 3 mg/kg; compound g: 3 mg/kg; compound h: 1 mg/kg; compound i: 1 mg/kg, respectively), or INS and a β3 agonist (compound a, compound c, compound d, compound e, compound g, compound h, and compound i) in combination (each dosage and administration route was the same as the aforementioned), blood was collected after 30 min, and the amount of glucose contained in blood plasma was measured.

[9] = tested on: Mice fasted overnight, glucose loaded; assay: Antidiabetic effect (II): plasma glucose after glucose loading in fasted mice, glibenclamide and β3 agonist; format: in vivo; settings: 1 hour after glucose load (1 g/kg s.c.), oral GLI 10 mg/kg, compound a 10 mg/kg, d 0.3 mg/kg, e, g 3 mg/kg, i 1 mg/kg, vs glucose loading only
Procedure: Mice fasted overnight were orally administered with glibenclamide (GLI: 10 mg/kg), a β3 agonist (compound a: 10 mg/kg; compound c: 0.3 mg/kg; compound d: 0.3 mg/kg; compound e: 3 mg/kg; compound g: 3 mg/kg; compound h: 1 mg/kg; compound i: 1 mg/kg), or GLI and a β3 agonist (compound a, compound c, compound d, compound e, compound g, compound h, and compound i) in combination (each dosage was the same as the aforementioned), and immediately glucose (1 g/kg, subcutaneous injection) was loaded. Blood was collected after 1 hour, and the amount of glucose contained in blood plasma was measured.
In this combined use, hypoglycemia, which is a side effect of glibenclamide, was not observed.

[10] = in the condition of a reduced dosage

| Structure (SMILES) | suppression of salivation (mouth dryness side effect) [1, 10] | concentration at which the bladder compression muscle was significantly relaxed [2] | concentration at which the muscle was not relaxed significantly [2] | suppression of salivation (mouth dryness side effect) ([1]; in vivo) | body weight [3] | plasma triglyceride level (Mice [4]) | body weight [5] | blood glucose level (glucose in blood plasma) [6] | blood glucose level (glucose in blood plasma) [7] | blood glucose level (glucose in blood plasma) (Mice [8]) | relaxation of bladder compression muscle, combination with propiverine [2] | relaxation of bladder compression muscle, combination with oxybutynin [2] | relaxation of bladder compression muscle, combination with tolterodine [2] | blood glucose level (glucose in blood plasma) [9] |
| --- | --- | --- | --- | --- | --- | --- | --- | --- | --- | --- | --- | --- | --- | --- |
| CCCOC(C(=O)OC1CCN(C)CC1)(c1ccccc1)c1ccccc1 [propiverine, reference compound] | observed | 10^−5 M | 10^−6 M | – | – | – | – | – | – | – | – | – | – | – |
| CCN(CC)CC#CCOC(=O)C(O)(c1ccccc1)C1CCCCC1 (stereo not drawn) [oxybutynin, reference compound] | observed | 10^−8 M | 10^−9 M | – | – | – | – | – | – | – | – | – | – | – |
| Cc1ccc(O)c([C@H](CCN(C(C)C)C(C)C)c2ccccc2)c1 [tolterodine, reference compound] | – | 10^−8 M | 10^−9 M | observed | – | – | – | – | – | – | – | – | – | – |
| CS(=O)(=O)Nc1cc([C@@H](O)CNCCOc2ccc3c(c2)sc2ccccc23)ccc1O [compound c, (R)-N-[5-[2-[2-(dibenzothiophene-3-iloxy)ethylamino]-1-hydroxyethyl]-2-hydroxyphenyl]methanesulfonamide] | – | 10^−8 M | 10^−10 M | – | almost no change in body weight | no difference | almost no change in body weight | no difference in the blood glucose level | no difference | no change in blood glucose level | relaxed significantly | relaxed significantly | relaxed significantly | almost no difference in the blood glucose level |
| CS(=O)(=O)Nc1cc([C@@H](O)CNCCOc2ccc3c(c2)[nH]c2ccccc23)ccc1Cl [compound h, (R)-N-[5-[2-[2-(9H-carbazole-2-iloxy)ethylamino]-1-hydroxyethyl]-2-chlorophenyl]methanesulfonamide] | – | 10^−6 M | 10^−8 M | – | almost no change in body weight | no difference | almost no change in body weight | no difference in the blood glucose level | no difference | no change in blood glucose level | relaxed significantly | relaxed significantly | relaxed significantly | almost no difference in the blood glucose level |
| CS(=O)(=O)Nc1cccc([C@@H](O)CNCCOc2ccc3c(c2)[nH]c2ccccc23)c1 [compound e, (R)-N-[3-[2-[2-(9H-carbazole-2-iloxy)ethylamino]-1-hydroxyethyl]phenyl]methanesulfonamide] | – | 10^−6 M | 10^−8 M | – | almost no change in body weight | no difference | almost no change in body weight | no difference in the blood glucose level | no difference | no change in blood glucose level | relaxed significantly | relaxed significantly | relaxed significantly | almost no difference in the blood glucose level |
